Data as given in ChEMBL document CHEMBL5104172, “Design, synthesis, and antibacterial activity of derivatives of Tryptophanyl-tRNA synthetase inhibitor indolmycin” (Eur J Med Chem, 2022).
Converted amounts (≈) assume the structure as drawn.

What was measured:
[1] = test system: Staphylococcus epidermidis; test: Antibacterial activity against methicillin-resistant Staphylococcus epidermidis MRSE17-6 measured by liquid dilution method; assay type: functional
Staphylococcus aureus [2] = test: Antibacterial activity against methicillin-resistant Staphylococcus aureus ATCC 33591 measured by liquid dilution method; assay type: functional
[3] = test system: Staphylococcus epidermidis; test: Antibacterial activity against methicillin-sensitive Staphylococcus epidermidis MSSE17-1 measured by liquid dilution method; assay type: functional
Staphylococcus aureus [4] = test: Antibacterial activity against methicillin-resistant Staphylococcus aureus MRSA17-1 measured by liquid dilution method; assay type: functional
Staphylococcus aureus [5] = test: Antibacterial activity against methicillin-resistant Staphylococcus aureus ATCC 43300 measured by liquid dilution method; assay type: functional
[6] = test system: Staphylococcus epidermidis; test: Antibacterial activity against methicillin-sensitive Staphylococcus epidermidis MSSE17-2 measured by liquid dilution method; assay type: functional
[7] = test system: Staphylococcus epidermidis; test: Antibacterial activity against methicillin-sensitive Staphylococcus epidermidis MSSE17-3 measured by liquid dilution method; assay type: functional
Staphylococcus aureus [8] = test: Antibacterial activity against vancomycin-intermediate Staphylococcus aureus ATCC 700699 measured by liquid dilution method; assay type: functional
Staphylococcus aureus [9] = test: Antibacterial activity against methicillin-resistant Staphylococcus aureus MRSA17-2 measured by liquid dilution method; assay type: functional
[10] = test system: Staphylococcus epidermidis; test: Antibacterial activity against methicillin-resistant Staphylococcus epidermidis MRSE17-1 measured by liquid dilution method; assay type: functional
Enterococcus faecium [11] = test: Antibacterial activity against Enterococcus faecium EFM17-1 measured by liquid dilution method; assay type: functional
Staphylococcus aureus [12] = test: Antibacterial activity against methicillin-resistant Staphylococcus aureus MRSA17-6 measured by liquid dilution method; assay type: functional
Enterococcus faecium [13] = test: Antibacterial activity against Enterococcus faecium EFM17-2 measured by liquid dilution method; assay type: functional
Staphylococcus aureus [14] = test: Antibacterial activity against methicillin-sensitive Staphylococcus aureus MSSA17-2 measured by liquid dilution method; assay type: functional
Staphylococcus aureus [15] = test: Antibacterial activity against methicillin-resistant Staphylococcus aureus MRSA17-3 measured by liquid dilution method; assay type: functional
[16] = test system: Staphylococcus epidermidis; test: Antibacterial activity against methicillin-resistant Staphylococcus epidermidis MRSE17-3 measured by liquid dilution method; assay type: functional
Staphylococcus aureus [17] = test: Antibacterial activity against methicillin-sensitive Staphylococcus aureus MSSA17-1 measured by liquid dilution method; assay type: functional
Staphylococcus aureus [18] = test: Antibacterial activity against methicillin-resistant Staphylococcus aureus MRSA17-5 measured by liquid dilution method; assay type: functional
Enterococcus faecalis [19] = test: Antibacterial activity against Enterococcus faecalis ATCC 29212 measured by liquid dilution method; assay type: functional
Staphylococcus aureus [20] = test: Antibacterial activity against Staphylococcus aureus ATCC 29213 measured by liquid dilution method; assay type: functional
Enterococcus faecalis [21] = test: Antibacterial activity against Enterococcus faecalis EFA17-1 measured by liquid dilution method; assay type: functional
Staphylococcus aureus [22] = test: Antibacterial activity against methicillin-sensitive Staphylococcus aureus MSSA17-3 measured by liquid dilution method; assay type: functional
Staphylococcus aureus [23] = test: Antibacterial activity against vancomycin-intermediate Staphylococcus aureus ATCC 700788 measured by liquid dilution method; assay type: functional
[24] = test system: Staphylococcus epidermidis; test: Antibacterial activity against methicillin-resistant Staphylococcus epidermidis MRSE17-4 measured by liquid dilution method; assay type: functional
[25] = test system: Staphylococcus epidermidis; test: Antibacterial activity against methicillin-resistant Staphylococcus epidermidis MRSE17-2 measured by liquid dilution method; assay type: functional
[26] = Plasma protein binding in CD-1 mouse plasma incubated for 4 hrs and assessed as unbound fraction at 2 uM measured by LC/MS/MS analysis; assay type: ADME, cell-free
[27] = Plasma protein binding in CD-1 mouse plasma incubated for 4 hrs at 2 uM measured by LC/MS/MS analysis; assay type: ADME, cell-free; settings: read-out: PPB (converted)

| Compound | MIC [1] | MIC (Staphylococcus aureus [2]) | MIC [3] | MIC (Staphylococcus aureus [4]) | MIC (Staphylococcus aureus [5]) | MIC [6] | MIC [7] | MIC (Staphylococcus aureus [8]) | MIC (Staphylococcus aureus [9]) | MIC [10] | MIC (Enterococcus faecium [11]) | MIC (Staphylococcus aureus [12]) | MIC (Enterococcus faecium [13]) | MIC (Staphylococcus aureus [14]) | MIC (Staphylococcus aureus [15]) | MIC [16] | MIC (Staphylococcus aureus [17]) | MIC (Staphylococcus aureus [18]) | MIC (Enterococcus faecalis [19]) | MIC (Staphylococcus aureus [20]) | also measured |
| --- | --- | --- | --- | --- | --- | --- | --- | --- | --- | --- | --- | --- | --- | --- | --- | --- | --- | --- | --- | --- | --- |
| CNC1=NC(=O)[C@H]([C@H](C)c2c[nH]c3cccc(Br)c23)O1 | 2 µg/mL (≈ 5.95 µM) | 4 µg/mL (≈ 11.9 µM) | 1 µg/mL (≈ 2.97 µM) | 2 µg/mL (≈ 5.95 µM) | 2 µg/mL (≈ 5.95 µM) | 1 µg/mL (≈ 2.97 µM) | 1 µg/mL (≈ 2.97 µM) | 1 µg/mL (≈ 2.97 µM) | 2 µg/mL (≈ 5.95 µM) | 2 µg/mL (≈ 5.95 µM) | > 128 µg/mL | 2 µg/mL (≈ 5.95 µM) | > 128 µg/mL | 4 µg/mL (≈ 11.9 µM) | 1 µg/mL (≈ 2.97 µM) | 0.5 µg/mL (≈ 1.49 µM) | 2 µg/mL (≈ 5.95 µM) | 2 µg/mL (≈ 5.95 µM) | > 128 µg/mL | 4 µg/mL (≈ 11.9 µM) | MIC (Enterococcus faecalis [21]): > 128 µg/mL; MIC (Staphylococcus aureus [22]): 2 µg/mL (≈ 5.95 µM); MIC (Staphylococcus aureus [23]): 2 µg/mL (≈ 5.95 µM); MIC [24]: 2 µg/mL (≈ 5.95 µM); MIC [25]: 2 µg/mL (≈ 5.95 µM) |
| CNC1=NC(=O)[C@H]([C@H](C)c2c[nH]c3cccc(C)c23)O1 | 0.5 µg/mL (≈ 1.84 µM) | 1 µg/mL (≈ 3.69 µM) | 0.125 µg/mL (≈ 0.461 µM) | 0.5 µg/mL (≈ 1.84 µM) | 0.5 µg/mL (≈ 1.84 µM) | 0.25 µg/mL (≈ 0.921 µM) | 0.25 µg/mL (≈ 0.921 µM) | 0.5 µg/mL (≈ 1.84 µM) | 0.5 µg/mL (≈ 1.84 µM) | 0.5 µg/mL (≈ 1.84 µM) | > 128 µg/mL | 0.5 µg/mL (≈ 1.84 µM) | > 128 µg/mL | 1 µg/mL (≈ 3.69 µM) | 0.5 µg/mL (≈ 1.84 µM) | 0.125 µg/mL (≈ 0.461 µM) | 1 µg/mL (≈ 3.69 µM) | 1 µg/mL (≈ 3.69 µM) | > 128 µg/mL | 1 µg/mL (≈ 3.69 µM) | fraction unbound at 4 h, 2 µM [26]: 0.276; fraction unbound at 4 h, 2 µM [27]: 0.276; MIC (Enterococcus faecalis [21]): > 128 µg/mL; MIC (Staphylococcus aureus [22]): 0.5 µg/mL (≈ 1.84 µM); MIC (Staphylococcus aureus [23]): 0.5 µg/mL (≈ 1.84 µM); MIC [24]: 0.5 µg/mL (≈ 1.84 µM); MIC [25]: 0.5 µg/mL (≈ 1.84 µM) |
| CNC1=NC(=O)[C@@H]([C@@H](C)c2c[nH]c3c(F)cccc23)O1 | 2 µg/mL (≈ 7.27 µM) | > 128 µg/mL | 32 µg/mL (≈ 116 µM) | 8 µg/mL (≈ 29.1 µM) | > 128 µg/mL | 2 µg/mL (≈ 7.27 µM) | > 128 µg/mL | > 128 µg/mL | 8 µg/mL (≈ 29.1 µM) | 4 µg/mL (≈ 14.5 µM) | > 128 µg/mL | 8 µg/mL (≈ 29.1 µM) | > 128 µg/mL | 4 µg/mL (≈ 14.5 µM) | 8 µg/mL (≈ 29.1 µM) | > 128 µg/mL | 8 µg/mL (≈ 29.1 µM) | 8 µg/mL (≈ 29.1 µM) | > 128 µg/mL | > 128 µg/mL | MIC (Enterococcus faecalis [21]): > 128 µg/mL; MIC (Staphylococcus aureus [22]): 4 µg/mL (≈ 14.5 µM); MIC (Staphylococcus aureus [23]): > 128 µg/mL; MIC [24]: > 128 µg/mL; MIC [25]: 1 µg/mL (≈ 3.63 µM) |
